The source of these data is patent US6841530B2, “Semi-synthetic studies toward didemnin analogues” (The Board of Trustees of the University of Illinois, priority 1996, dated 2005).

The test system of data set [1] is HSV. In words: Antiviral activities of didemnins, HSV/CV-1. Details: key: +++ = complete inhibition; ++ = strong inhibition; + = moderate inhibition; − = no inhibition. The data set is classed as cell-based.
The nature of data set [2]: Cytotoxicity of didemnins (Table II). As to conditions: for IC50: cytotoxicity. The data set is classed as cell-based.
The test system of data set [3] is P388 Murine Leukemia. In words: Life extension vs. P388 murine leukemia in mice. The data set is classed as in vivo.
Data set [4] has as its system CV-1. Kind of data set: Cytotoxicity score in the HSV/CV-1 antiviral assay. As to conditions: scale 0 (least toxic) to 16 (toxic).

In brackets after ≈: the same amount, converted by molar mass. Starred links: 1 amine or outer side, 2 acyl side, 3 side chain; linkers in the order of their positions; H or OH if unused. Positions of bridges follow the written chain, without caps; N, C: chain ends. Non-standard residues stand in square brackets, D forms with d. Residues, ends and D or L forms follow the SMILES beside them. X1 = CC[C@H](C)[C@@H](N[*:1])[C@@H](O)CC(=O)O[C@H](C(=O)[C@H](C)C(=O)[*:2])C(C)C; NMeY = CN[C@@H](Cc1ccc(O)cc1)C(=O)O; dNMeL = CN[C@H](CC(C)C)C(=O)O; Lac = C[C@H](O)C(=O)O

As for `CC[C@H](C)[C@H]1NC(=O)[C@@H](NC(=O)[C@@H](CC(C)C)N(C)C(=O)[C@@H]2CCCN2C(=O)[C@H](C)OC(=O)[C@@H](N)CCC(N)=O)[C@@H](C)OC(=O)[C@H](Cc2ccc(OC)cc2)N(C)C(=O)[C@@H]2CCCN2C(=O)[C@H](CC(C)C)NC(=O)[C@@H](C)C(=O)[C@H](C(C)C)OC(=O)C[C@@H]1O` [Gln-Didemnin B, Glutaminyl-didemnin B] (H-Q[Lac]P[dNMeL]T[X1]LP[NMeY](Me); ester 5-C), the Activity entry in data set [1] (10 ng/mL) is listed as “+++”. Besides, the “Inhibition (%)” value came out at 94% in data set [2] (Dose 0.25 ng/mL), 100% in data set [2] (Dose 2.5 ng/mL), 100% in data set [2] (Dose 25 ng/mL) and 100% in data set [2] (Dose 250 ng/mL). This compound also gave an IC50 in data set [2] of 0.1 ng/mL (≈ 0.0806 nM). Further, the figures for the “T/C (% of Control, Life Extension)” value in data set [3] (Dose 0.025 mg/kg), in data set [3] (Dose 0.05 mg/kg) and in data set [3] (Dose 1 mg/kg) were 152 % of Control, 171 % of Control and 185 % of Control, respectively. The Cytotoxocity was determined as 0 in data set [4] (10 ng/mL), 16 in data set [4] (20 ng/mL), 16 in data set [4] (50 ng/mL) and 16 in data set [4] (100 ng/mL).
On to `CC[C@H](C)[C@H]1NC(=O)[C@@H](NC(=O)[C@@H](CC(C)C)N(C)C(=O)[C@@H]2CCCN2C(=O)[C@H](C)OC(=O)[C@@H]2CCC(=O)N2C(=O)OCc2ccccc2)[C@@H](C)OC(=O)[C@H](Cc2ccc(OC)cc2)N(C)C(=O)[C@@H]2CCCN2C(=O)[C@H](CC(C)C)NC(=O)[C@@H](C)C(=O)[C@H](C(C)C)OC(=O)C[C@@H]1O` [Cbz-pGlu-Didemnin B (145), N-Benzyloxycarbonyl-L-pyroglutaminyl-didemnin B], for which the Activity entry is recorded as “−” in data set [1] (10 ng/mL), “+” in data set [1] (20 ng/mL), “+” in data set [1] (50 ng/mL) and “+” in data set [1] (100 ng/mL). Further, the “Inhibition (%)” value in data set [2] (Dose 0.25 ng/mL) came to 0%; in data set [2] (Dose 2.5 ng/mL), 0%; in data set [2] (Dose 25 ng/mL), 70%; in data set [2] (Dose 250 ng/mL) it was 100%. Besides, in data set [2], the IC50 amounted to 50 ng/mL (≈ 36.8 nM). The Cytotoxocity in data set [4] (10 ng/mL), in data set [4] (20 ng/mL), in data set [4] (50 ng/mL) and in data set [4] (100 ng/mL) was 0 each time.
